Molecules are shown by their SMILES.

The term melting point denotes the temperature of the solid-liquid transition.

Compound `Cc1nc(-n2cc(CCCc3ccccc3)nn2)sc1C(=O)NCc1ccc(F)c(F)c1` [Example 14.1, N-(3,4-difluorobenzyl)-4-methyl-2-(4-(3-phenylpropyl)-1H-1,2,3-triazol-1-yl)thiazole-5-carboxamide] displayed a melting point of 81 to 84 °C.
With `Cc1nc(-c2cn(CC(F)(F)c3ccccc3)nn2)sc1C(=O)NCc1cccnc1` [Example 30, 2-(1-(2,2-difluoro-2-phenylethyl)-1H-1,2,3-triazol-4-yl)-4-methyl-N-(pyridin-3-ylmethyl)thiazole-5-carboxamide] the figure was 150 to 151 °C; with `Cc1nc(-n2nnc(C(=O)NCc3ccccc3)c2C)sc1C(=O)NCc1ccccc1` [Example 18.2, N-benzyl-2-(4-(benzylcarbamoyl)-5-methyl-1H-1,2,3-triazol-1-yl)-4-methylthiazole-5-carboxamide], 183 to 186 °C; with `Cc1nc(-n2cc(COc3ccccc3)nn2)sc1C(=O)NCc1ccccc1` [Example 10.4, N-benzyl-4-methyl-2-(4-(phenoxymethyl)-1H-1,2,3-triazol-1-yl)thiazole-5-carboxamide], 140 to 143 °C.
With `Cc1nc(-c2nn[nH]n2)sc1C(=O)NCc1cccnc1` [Example 6, 4-methyl-N-(pyridin-3-ylmethyl)-2-(2H-tetrazol-5-yl)thiazole-5-carboxamide] the figure was > 200 °C (dec.).
`Cc1nc(-n2cc(-c3ccc(F)cc3)nn2)sc1C(=O)NCc1ccccc1` [Example 10.13, N-benzyl-2-(4-(4-fluorophenyl)-1H-1,2,3-triazol-1-yl)-4-methylthiazole-5-carboxamide] had a melting point of 203 to 205 °C.
The same measure for `Cc1nc(-n2cc(CCCc3ccccc3)nn2)sc1C(=O)NCc1cccnc1` [Example 14, 4-methyl-2-(4-(3-phenylpropyl)-1H-1,2,3-triazol-1-yl)-N-(pyridin-3-ylmethyl)thiazole-5-carboxamide]: 108 to 110 °C; for `Cc1nc(-n2cc(-c3ccccn3)nn2)sc1C(=O)NCc1ccccc1` [Example 10.6, N-benzyl-4-methyl-2-(4-(pyridin-2-yl)-1H-1,2,3-triazol-1-yl)thiazole-5-carboxamide]: 184 to 187 °C; for `Cc1nc(-n2cc(C(=O)c3ccccc3)nn2)sc1C(=O)NCc1ccccc1` [Example 11, 2-(4-benzoyl-1H-1,2,3-triazol-1-yl)-N-benzyl-4-methylthiazole-5-carboxamide]: 176 to 178 °C.
With `Cc1nc(-c2cn(CC3CC3)nn2)sc1C(=O)NCc1cccnc1` [Example 4.5, 2-(1-(cyclopropylmethyl)-1H-1,2,3-triazol-4-yl)-4-methyl-N-(pyridin-3-ylmethyl)thiazole-5-carboxamide] the figure was 140 to 141 °C.
Compound `Cc1cc(-c2ncn(Cc3ccc(F)cc3)n2)sc1C(=O)NCc1cccnc1` [Example 23.1, 5-(1-(4-fluorobenzyl)-1H-1,2,4-triazol-3-yl)-3-methyl-N-(pyridin-3-ylmethyl)thiophene-2-carboxamide] yielded a melting point of 154 to 155 °C.
On to `COc1ccc(-c2cn(-c3nc(C)c(C(=O)NCc4ccccc4)s3)nn2)cc1` [Example 10.5, N-benzyl-2-(4-(4-methoxyphenyl)-1H-1,2,3-triazol-1-yl)-4-methylthiazole-5-carboxamide], for which the melting point is 168 to 171 °C.
With `Cc1cc(-n2nnc(-c3ccccc3)n2)sc1C(=O)NCc1ccccc1` [Example 21, N-benzyl-3-methyl-5-(5-phenyl-2H-tetrazol-2-yl)thiophene-2-carboxamide] the figure was 155 to 158 °C; with `Cc1nc(-n2cc(CCc3ccccc3)nn2)sc1C(=O)NCc1cccnc1` [Example 14.2, 4-methyl-2-(4-phenethyl-1H-1,2,3-triazol-1-yl)-N-(pyridin-3-ylmethyl)thiazole-5-carboxamide], 114 to 116 °C; with `Cc1nc(-n2cc(C(=O)NCc3ccccc3)nn2)sc1C(=O)NCc1ccccc1` [Example 18, N-benzyl-2-(4-(benzylcarbamoyl)-1H-1,2,3-triazol-1-yl)-4-methylthiazole-5-carboxamide], 178 to 180 °C.
With `Cc1nc(-n2cc(-c3ccsc3)nn2)sc1C(=O)NCc1ccccc1` [Example 10.11, N-benzyl-4-methyl-2-(4-(thiophen-3-yl)-1H-1,2,3-triazol-1-yl)thiazole-5-carboxamide] the figure was 123 to 126 °C.
The same measure for `Cc1cc(-c2ncn(Cc3ccc(F)cc3)n2)sc1C(=O)NCc1ccccc1` [Example 23, N-benzyl-5-(1-(4-fluorobenzyl)-1H-1,2,4-triazol-3-yl)-3-methylthiophene-2-carboxamide]: 128 to 130 °C; for `Cc1nc(-c2cn(Cc3ccc(C(F)(F)F)cc3)nn2)sc1C(=O)NCc1ccccc1` [Example 1.3, N-benzyl-4-methyl-2-(1-(4-(trifluoromethyl)benzyl)-1H-1,2,3-triazol-4-yl)thiazole-5-carboxamide]: 131 to 132 °C; for `Cc1nc(-c2n[nH]c(Cc3ccccc3)n2)sc1C(=O)NCc1ccccc1` [Example 8, N-benzyl-2-(5-benzyl-1H-1,2,4-triazol-3-yl)-4-methylthiazole-5-carboxamide]: 235 to 237 °C.
The compound `Cc1nc(-c2cn(Cc3ccc(F)cc3)nn2)sc1C(=O)NCc1cccnc1` [Example 4.1, 2-(1-(4-fluorobenzyl)-1H-1,2,3-triazol-4-yl)-4-methyl-N-(pyridin-3-ylmethyl)thiazole-5-carboxamide] returned a melting point of 212 to 213 °C.
With `Cc1nc(-n2cc(-c3ccccc3)nn2)sc1C(=O)NCc1ccccc1` [Example 10, N-benzyl-4-methyl-2-(4-phenyl-1H-1,2,3-triazol-1-yl)thiazole-5-carboxamide] the figure was 175 to 178 °C; with `Cc1nc(-n2cc([C@H](O)c3ccccc3)nn2)sc1C(=O)NCc1ccccc1` [Example 10.12, (R)—N-benzyl-2-(4-(hydroxy(phenyl)methyl)-1H-1,2,3-triazol-1-yl)-4-methylthiazole-5-carboxamide], 146 to 149 °C.
The same measure for `Cc1nc(-n2cc(CNc3ccccc3)nn2)sc1C(=O)NCc1ccccc1` [Example 10.10, N-benzyl-4-methyl-2-(4-((phenylamino)methyl)-1H-1,2,3-triazol-1-yl)thiazole-5-carboxamide]: 159 to 162 °C.
In the case of `Cc1nc(-n2cc(-c3ccc(OCc4ccccc4)cc3)nn2)sc1C(=O)NCc1ccccc1` [Example 10.8, N-benzyl-2-(4-(4-(benzyloxy)phenyl)-1H-1,2,3-triazol-1-yl)-4-methylthiazole-5-carboxamide], the melting point lay within 237 to 240 °C.
With `Cc1nc(-n2cc(CCCc3ccccc3)nn2)sc1C(=O)NCc1ccccc1` [Example 10.3, N-benzyl-4-methyl-2-(4-(3-phenylpropyl)-1H-1,2,3-triazol-1-yl)thiazole-5-carboxamide] the figure was 94 to 97 °C.
With `Cc1nc(-c2cc(CCc3ccccc3)no2)sc1C(=O)NCc1ccccc1` [Example 27.1, N-benzyl-4-methyl-2-(3-phenethylisoxazol-5-yl)thiazole-5-carboxamide] the figure was 114 to 115 °C.
The compound `Cc1nc(-n2[nH]c(C)c(Cc3ccc(Cl)cc3)c2=O)sc1C(=O)NCc1cccnc1` [Example 33, 2-(4-(4-chlorobenzyl)-3-methyl-5-oxo-2,5-dihydro-1H-pyrazol-1-yl)-4-methyl-N-(pyridin-3-ylmethyl)thiazole-5-carboxamide] showed a melting point of 215 to 217 °C.
The compound `Cc1nc(-n2cc(CCc3ccccc3)nn2)sc1C(=O)NCc1ccccc1` [Example 10.2, N-benzyl-4-methyl-2-(4-phenethyl-1H-1,2,3-triazol-1-yl)thiazole-5-carboxamide] gave a melting point of 167 to 170 °C.
With `Cc1nc(-c2noc(Cc3ccccc3)n2)sc1C(=O)NCc1ccccc1` [Example 34, N-benzyl-2-(5-benzyl-1,2,4-oxadiazol-3-yl)-4-methylthiazole-5-carboxamide] the figure was 124 to 125 °C; with `Cc1nc(-n2cc(-c3cccnc3)nn2)sc1C(=O)NCc1ccccc1` [Example 10.9, N-benzyl-4-methyl-2-(4-(pyridin-3-yl)-1H-1,2,3-triazol-1-yl)thiazole-5-carboxamide], 117 to 119 °C.
In turn, `Cc1cc(-c2n[nH]c(Cc3ccccc3)n2)sc1C(=O)NCc1ccccc1` [Example 9, N-benzyl-5-(5-benzyl-1H-1,2,4-triazol-3-yl)-3-methylthiophene-2-carboxamide] showed a melting point of 168 to 171 °C.
As for `Cc1nc(-c2cn(Cc3ccccc3)nn2)sc1C(=O)NCc1cccnc1` [Example 4, 2-(1-benzyl-1H-1,2,3-triazol-4-yl)-4-methyl-N-(pyridin-3-ylmethyl)thiazole-5-carboxamide], the melting point was in the range of 212 to 213 °C.
The same measure for `Cc1nc(-c2cn(Cc3ccc(C(F)(F)F)cc3)nn2)sc1C(=O)NCc1cccnc1` [Example 4.2, 4-methyl-N-(pyridin-3-ylmethyl)-2-(1-(4-(trifluoromethyl)benzyl)-1H-1,2,3-triazol-4-yl)thiazole-5-carboxamide]: 204 to 205 °C; for `Cc1nc(-n2cc(C(O)c3ccccc3)nn2)sc1C(=O)NCc1ccccc1` (stereo not shown) [Example 10.7, N-benzyl-2-(4-(hydroxy(phenyl)methyl)-1H-1,2,3-triazol-1-yl)-4-methylthiazole-5-carboxamide]: 143 to 146 °C; for `Cc1nc(-c2cn(CCC3CC3)nn2)sc1C(=O)NCc1cccnc1` [Example 4.4, 2-(1-(2-cyclopropylethyl)-1H-1,2,3-triazol-4-yl)-4-methyl-N-(pyridin-3-ylmethyl)thiazole-5-carboxamide]: 124 to 125 °C.
Take `Cc1nc(-c2cnc(Cc3ccccc3)o2)sc1C(=O)NCc1ccccc1` [Example 36, N-benzyl-2-(2-benzyloxazol-5-yl)-4-methylthiazole-5-carboxamide]: the melting point was in the range of 141 to 142 °C.
Compound `Cc1nc(-c2cn(Cc3ccc(F)cc3)nn2)sc1C(=O)NCc1ccccc1` [Example 1.2, N-benzyl-2-(1-(4-fluorobenzyl)-1H-1,2,3-triazol-4-yl)-4-methylthiazole-5-carboxamide] showed a melting point of 114 to 115 °C.

For the origin of these results see patent publication US8258160B2, “SCD1 inhibitors triazole and tetrazole compounds” (Novartis AG, priority 2006, dated 2012).
